Consider 20 molecules from patent US8105636B2, “Compositions and methods for treating inflammation and inflammation-related disorders by Plectranthus amboinicus extracts” (Academia Sinica, priority 2007, dated 2012).

What is called IC50 is the concentration that inhibits the measured activity by half.

One test deals with T1, AP-1 (Homo sapiens, UniProt P01100+P05412).
T1 construct: (Histidine)6; Strep-tag; made in house; host or cells: bacterial cells harboring pFos-Jun
Kind of test: AP-1 inhibition assay (ELISA), AP-1 binding to AP-1 recognition sequence. Here is the method:
To test the effect of the compounds of the present disclosure on AP-1 binding activity to AP-1 recognition sequence, ELISA experiments were performed.
According to implementations, binding assays were developed to identify inhibitors that block the AP-1 DNA binding activities. Traditional methods call for the preparation of nuclear extracts from TPA-stimulated cells, or require separate purification of Fos and Jun followed with in vitro dimerization to form a functional AP-1 complexes. A bicistronic expression vector that can drive the expression of two genes in one plasmid was thus designed as shown in FIG. 7. In this system, a promoter would directly drive the expression of the first gene, which is connected to the second gene via a ribosome-binding site in order to confer the expression of the second genes. Any pair of genes that form heterodimer in the cells for their physiological functions can be potentially expressed as complexes in the cells using this system.
According to implementations, the expression system of FIG. 7 was used to co-express AP-1 complexes. Accordingly, Fos (as gene 1) was tagged with a (Histidine)6 tag and Jun (as Gene 2) was tagged with Strep-tag as illustrated in FIG. 8A. […] Cross-linking experiments further confirmed the Fos-Jun complexes are dimers (FIG. 8C).
The crude extracts containing or the purified proteins were used for ELISA-based and fluorescence anisotropy-based binding analysis. Labeled oligonucleotides containing one or more copies of AP-1 consensus binding sites were used in the binding assays. Biotin-labeled oligonucleotides were used to coat streptavidin-plates in ELISA-binding assays. Rhodamine or fluorescein or other fluorophores-labeled oligonucleotides were used for fluorescence anisotropy analysis.
For orientation: An ELISA detects its analyte on a solid surface through an enzyme-linked reagent.

The test system of test [1] is AP-1 transcription factors. Nature of the test: ELISA-based AP-1/DNA binding assay with nuclear extracts from TPA-activated HeLa or K562 cells. Particulars: fractions of PA crude extract from preparative C18 HPLC; FIG. 4. On the procedure: According to implementations of experimental data shown in FIG. 5, oligonucleotide containing AP-1 binding sites were incubated nuclear extracts from TPA-stimulated K562 (K562) or HeLa (HeLa) cells. The antibodies to AP-1 complexes were added followed with horseradish peroxidase-labeled secondary antibody for ELISA-based analysis. AP-1 binding activity in the nuclear extract from TPA-stimulated cells was defined as 100% and the AP-1 binding activity of buffer only was defined as 0%.
According to implementations of experimental data shown in FIG. 6, AP-1 complexes can be formed by different proteins such as C-Jun, JunB, JunD, c-Fos, Fos-B, Fra-1 or Fra-2.
Due to the involvement of AP-1 activity in inflammatory signaling, the effects of the PA crude extract on AP-1/DNA binding activity was examined. […] The nuclear extract prepared from TPA-activated HeLa or K562 cells were used as AP-1 protein sources. After incubating with the oligonucleotides containing AP-1 binding sites, the AP-1/DNA complexes were detected with HRP-conjugated anti-c-Fos antibodies.
The PA crude extract was further fractionated with preparative HPLC using C18 column. […] This fraction was further purified by employing another C18 column using the solvent gradient from 2% acetonitrile to 90% acetonitrile containing 0.1% trifluoreoacetic acid. […]

The subject of test [2] is Human umbilical vein endothelial (HUVEC) cells. Nature of the test: LPS-induced cytokine/chemokine expression in HUVEC cells (Luminex). Type of test: cell-based. On the set-up: unit not given here. Particulars: HUVEC cells incubated with LPS, PA crude extract 1 mg/ml. On the procedure:
Human umbilical vein endothelial (HUVEC) cells were incubated with LPS in the absence or presence of 1 mg/ml crude extract of PA. The cytokine expression profile was determined using Luminex.

[3] abbreviates: ELISA, AP-1 binding activity to AP-1 recognition sequence, read-out: IC50 (AP-1 inhibition assay).

Where two headings read alike, the source gives them in different places.

T1 sequence (P01100 whole entry): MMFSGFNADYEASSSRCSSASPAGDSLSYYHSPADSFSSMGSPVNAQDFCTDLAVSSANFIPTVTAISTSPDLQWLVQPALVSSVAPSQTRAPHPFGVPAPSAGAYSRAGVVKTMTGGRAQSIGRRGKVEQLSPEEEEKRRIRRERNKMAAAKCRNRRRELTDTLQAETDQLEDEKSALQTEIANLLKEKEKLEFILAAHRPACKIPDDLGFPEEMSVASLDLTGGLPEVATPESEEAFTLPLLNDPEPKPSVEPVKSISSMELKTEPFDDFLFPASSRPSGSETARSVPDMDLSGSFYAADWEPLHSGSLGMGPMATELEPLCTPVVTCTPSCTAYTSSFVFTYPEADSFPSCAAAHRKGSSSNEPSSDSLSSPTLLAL
T1 sequence (P05412 whole entry): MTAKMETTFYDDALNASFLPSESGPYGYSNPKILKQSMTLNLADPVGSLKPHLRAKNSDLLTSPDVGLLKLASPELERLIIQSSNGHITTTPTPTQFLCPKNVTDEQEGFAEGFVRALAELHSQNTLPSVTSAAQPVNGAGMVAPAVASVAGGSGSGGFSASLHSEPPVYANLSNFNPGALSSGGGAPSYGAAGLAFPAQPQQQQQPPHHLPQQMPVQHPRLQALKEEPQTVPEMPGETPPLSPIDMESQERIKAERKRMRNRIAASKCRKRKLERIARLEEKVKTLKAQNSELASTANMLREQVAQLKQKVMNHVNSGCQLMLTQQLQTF

For `O=C(O)/C(=C\c1ccc(O)c(O)c1)C(c1ccc(O)c(O)c1)C(O)C(=O)O` (single isomer, unassigned) [Mena 987 (1)], the IC50 on AP-1 (setting [3]) was determined as 4.3 ± 2.6 µM.

Regarding `O=C(/C=C/c1ccc(O)c(O)c1)NC[C@@H](O)C(=O)Oc1cccc(O)c1O` [CHM9102], the “Inhibitory effects against AP-1 binding of HPLC fractions and isolated components (in words)” value in test [1] is “inhibitory effects”.

For `COC(=O)C(Cc1ccc(O)c(O)c1)NC(=O)/C=C/c1ccc(O)c(O)c1` (stereo not drawn) [Compound 5], the IC50 at AP-1 (setting [3]) was found to be 39 ± 31 µM.

In the case of `CCOC(=O)[C@H](Cc1ccc(O)c(O)c1)NC(=O)/C=C/c1ccc(O)c(O)c1` [Compound 6], the IC50 on AP-1 (setting [3]) was found to be 32.5 ± 24 µM.

On to `O=C(/C=C/c1ccc(O)c(O)c1)N[C@@H](Cc1ccc(O)c(O)c1)C(=O)O` [Compound 7], for which the IC50 at AP-1 (setting [3]) worked out at 9.2 ± 3.2 µM.

Consider `O=C(/C=C/c1ccc(O)c(O)c1)NCCc1ccc(O)c(O)c1` [Compound 8], for which, on AP-1 (setting [3]), the IC50 was found to be 12.9 ± 5.9 µM.

Molecule `CCOP(=O)(OCC)C(Cc1ccc(O)c(O)c1)NC(=O)/C=C/c1ccc(O)c(O)c1` (stereo not drawn) [Compound 9] gave an IC50 on AP-1 of 26.2 ± 18.9 µM.

Take `CCOC(=O)C(Cc1ccc(O)c(O)c1)OC(=O)/C=C/c1ccc(O)c(O)c1` (stereo not drawn) [Compound 10]: on AP-1 (setting [3]), the IC50 was 5.6 ± 4.2 µM.

Consider `O=C(/C=C/c1cc(O)c(O)cc1[N+](=O)[O-])OC(Cc1cc(O)c(O)cc1[N+](=O)[O-])C(=O)O` (stereo not drawn) [Compound 11], for which, at AP-1 (setting [3]), the IC50 is 21.3 ± 24 µM.

Turning to `COC(=O)C(Cc1ccc(O)c(O)c1)NC(=O)[C@H](Cc1ccc(O)c(O)c1)OC(=O)/C=C/c1ccc(O)c(O)c1` (stereo partly drawn) [Compound 13], at AP-1 (setting [3]), the IC50 stood at 0.8 ± 0.8 µM.

In the case of `CCOC(=O)C(Cc1ccc(O)c(O)c1)NC(=O)[C@H](Cc1ccc(O)c(O)c1)OC(=O)/C=C/c1ccc(O)c(O)c1` (stereo partly drawn) [Compound 14], the IC50 on AP-1 (setting [3]) came out at 1.2 ± 0.8 µM.

`O=C(O)CC(NC(=O)C(Cc1ccc(O)c(O)c1)OC(=O)C=Cc1ccc(O)c(O)c1)C(=O)O` (stereo not drawn) [Compound 15]: the IC50 on AP-1 (setting [3]) turned out to be 34.7 ± 21.3 µM.

Consider `COC(=O)C(Cc1ccc(O)c(O)c1)NC(=O)C(Cc1cc(O)c(O)cc1[N+](=O)[O-])OC(=O)C=Cc1ccc(O)c(O)c1` (stereo not drawn) [Compound 16], for which the IC50 at AP-1 (setting [3]) worked out at 21.3 ± 24 µM.

On to `COC(=O)C(Cc1c[nH]c2ccccc12)NC(=O)C(Cc1ccc(O)c(O)c1)OC(=O)C=Cc1ccc(O)c(O)c1` (stereo not drawn) [Compound 17], for which, on AP-1 (setting [3]), the IC50 stood at 43.4 ± 28.2 µM.

As for `O=C(C=Cc1ccc(O)c(O)c1)OC(Cc1ccc(O)c(O)c1)C(=O)NC(Cc1c[nH]c2ccccc12)C(=O)O` (stereo not drawn) [Compound 18], the IC50 on AP-1 (setting [3]) was 31.9 ± 20 µM.

Regarding `COC(=O)C(Cc1ccc(O)c(O)c1)NC(=O)C(Cc1ccc(O)c(O)c1)NC(=O)C=Cc1ccc(O)c(O)c1` (stereo not drawn) [Compound 19], at AP-1 (setting [3]), the IC50 came to 8 ± 4.7 µM.

Turning to `O=C(C=Cc1ccc(O)c(O)c1)NC(Cc1ccc(O)c(O)c1)C(=O)NC(Cc1ccc(O)c(O)c1)C(=O)O` (stereo not drawn) [Compound 20], at AP-1 (setting [3]), the half-maximal inhibitory concentration (IC50) was 3.5 ± 2 µM.

In test [2], `COc1ccc2c(c1)c(CC(=O)O)c(C)n2C(=O)c1ccc(Cl)cc1` [Indomethacin] gave an Eotaxin expression of 29.1, a GM-CSF expression of 220, an IFNg expression of 2.41 and an IL-1a expression of 13.8. In addition, in test [2], the IL-1b expression amounted to 11.7, the IL-2 expression was 10.1, the IL-3 expression came out at 8.82 and the IL-4 expression was determined as 11.8. In test [2], this molecule had an IL-5 expression of 1.24, an IL-6 expression of 62300, an IL-7 expression of 51.5 and an IL-8 expression of 8030. For the same molecule, in test [2], the IL-10 expression was determined as 1.12, the “IL-12 (p40) expression” value worked out at 16.4, the “IL-12 (p70) expression” value is listed as 6.43 and the IL-13 expression is 11.1. In test [2], this molecule gave an IL-15 expression of 13.4, an IP-10 expression of 24.5, an MCP-1 expression of 41800 and an MIP-la expression of 7.57. In test [2], this molecule gave an RANTES expression of 5.48 and a TNFa expression of 8.14.

Turning to `O=C(OC(Cc1ccc(O)c(O)c1)C(=O)O)C1=Cc2ccc(O)c(O)c2C(C(=O)OC(Cc2ccc(O)c(O)c2)C(=O)O)C1c1ccc(O)c(O)c1` (stereo not drawn) [Mena 9102 (3)], the IC50 on AP-1 (setting [3]) was 1.4 ± 0.9 µM.

Regarding `O=C(/C=C/c1ccc(O)c(O)c1)O[C@H](Cc1ccc(O)c(O)c1)C(=O)O` [rosmarinic acid (4), rosmarinic acid], at AP-1 (setting [3]), the IC50 was 10 ± 4.1 µM. Also, in test [1], the “Inhibitory effects against AP-1 binding of HPLC fractions and isolated components (in words)” value is “inhibitory effects”.
